Measurements from ChEMBL document CHEMBL1154387, “Discovery of novel non-peptide inhibitors of BACE-1 using virtual high-throughput screening” (Bioorg Med Chem Lett, 2009).

Tests used:
Beta-secretase 1 [1] = target: T1, Beta-secretase 1 (Homo sapiens, UniProt P56817); assay: Inhibition of human recombinant BACE1; design: concentration or dose not given beside the values; details: concentration not given here
Beta-secretase 1 [2] = target: T1, Beta-secretase 1; assay: Inhibition of human recombinant BACE1 at 100 uM

T1 sequence (P56817 whole entry): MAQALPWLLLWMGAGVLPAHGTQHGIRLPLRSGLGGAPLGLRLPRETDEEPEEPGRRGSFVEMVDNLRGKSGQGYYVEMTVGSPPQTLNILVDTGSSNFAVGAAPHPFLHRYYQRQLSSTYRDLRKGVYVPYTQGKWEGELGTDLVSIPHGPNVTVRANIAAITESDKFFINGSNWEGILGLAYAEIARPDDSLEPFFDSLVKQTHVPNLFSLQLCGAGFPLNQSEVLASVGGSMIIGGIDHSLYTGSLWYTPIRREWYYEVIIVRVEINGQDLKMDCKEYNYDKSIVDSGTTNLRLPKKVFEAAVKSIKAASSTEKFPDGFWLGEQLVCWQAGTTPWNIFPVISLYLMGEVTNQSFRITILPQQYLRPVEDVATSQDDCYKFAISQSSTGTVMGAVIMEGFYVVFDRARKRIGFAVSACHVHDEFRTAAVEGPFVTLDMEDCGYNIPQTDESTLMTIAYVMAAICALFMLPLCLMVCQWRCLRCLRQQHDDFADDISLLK

Row | inhibition (Beta-secretase 1 [1]) [%] | IC50 (Beta-secretase 1 [2]) [µM] | SMILES
1 | 14.3 | – | CN1C(=O)/C(=N\NC(=O)c2cc([N+](=O)[O-])ccc2O)c2ccccc21
2 | 71.1 | – | Cc1ccc(NC(=O)CN2C(=O)/C(=N\NC(=O)c3ccccc3O)c3ccccc32)cc1
3 | 74.6 | – | O=C(CN1C(=O)/C(=N\NC(=O)c2cc([N+](=O)[O-])ccc2O)c2ccccc21)Nc1ccc(C(F)(F)F)cc1
4 | 20.2 | – | COc1ccc([N+](=O)[O-])cc1C(=O)N/N=C1\C(=O)N(CC(=O)Nc2ccc(C)cc2)c2ccccc21
5 | 92 | 4.8 | O=C(CN1C(=O)/C(=N\NC(=O)c2cc([N+](=O)[O-])ccc2O)c2ccccc21)NC1CCCCC1
6 | 35.2 | – | O=C1Nc2ccccc2/C1=N/NC(=O)c1cc([N+](=O)[O-])ccc1O
7 | 84.5 | 2.4 | Cc1ccc(NC(=O)CN2C(=O)/C(=N\NC(=O)c3cc([N+](=O)[O-])ccc3O)c3ccccc32)cc1
8 | 28.8 | – | Cc1ccc(NC(=O)CN2C(=O)/C(=N\NC(=O)c3cccc([N+](=O)[O-])c3)c3ccccc32)cc1
